In ChEMBL document CHEMBL1909046, “DrugMatrix in vitro pharmacology data” one finds IC50 and Ki data, which are given here for 20 compounds.

Assay [1] addresses T1, Alpha-1B adrenergic receptor (Rattus norvegicus, UniProt P15823).
T1 sequence (P15823 whole entry): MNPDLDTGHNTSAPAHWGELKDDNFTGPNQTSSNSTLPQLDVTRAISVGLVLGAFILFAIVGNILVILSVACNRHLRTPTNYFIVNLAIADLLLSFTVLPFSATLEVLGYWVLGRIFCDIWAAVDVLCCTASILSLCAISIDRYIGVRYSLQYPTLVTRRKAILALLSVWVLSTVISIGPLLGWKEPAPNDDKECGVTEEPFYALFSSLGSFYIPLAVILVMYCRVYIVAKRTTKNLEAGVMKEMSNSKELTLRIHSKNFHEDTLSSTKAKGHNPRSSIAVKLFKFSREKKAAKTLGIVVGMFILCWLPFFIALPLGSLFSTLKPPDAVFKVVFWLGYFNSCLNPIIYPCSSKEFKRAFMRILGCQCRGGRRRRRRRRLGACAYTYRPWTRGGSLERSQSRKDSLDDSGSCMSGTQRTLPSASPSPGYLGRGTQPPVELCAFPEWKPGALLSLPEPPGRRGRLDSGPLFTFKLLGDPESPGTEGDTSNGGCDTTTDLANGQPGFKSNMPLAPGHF
As to the kind of experiment: DRUGMATRIX: Alpha-1B adrenergic receptor radioligand binding (ligand: prazosin). In kind it is cell membranes, Wistar, Liver, Membrane. To be noted: Not Active = under 50% inhibition at 10 µM.

Assay [2] is described as follows: DRUGMATRIX: Atrial Natriuretic Factor (ANF) radioligand binding (ligand: [125I] ANF (rat)). It is filed as cell membranes, Cavia porcellus, Dunkin-Hartley, Adrenal gland, Membrane. To be noted: Not Active = under 50% inhibition at 10 µM.
Assay [3] can be described thus: DRUGMATRIX: Glutamate, AMPA radioligand binding (ligand: [3H] AMPA). It is filed as cell membranes, Rattus norvegicus, Wistar, Cerebral cortex, Membrane. The settings on record: Not Active = under 50% inhibition at 10 µM.
Assay [4] concerns the target Tyrosine-protein kinase Fyn (Homo sapiens, UniProt P06241). As to the kind of experiment: biochemical. In kind it is cell-based, Insect cells. The settings on record: insect cells.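 Further: enzymatic inhibition of Fyn kinase activity measured with Poly(Glu:Tyr) as the phosphorylation substrate; in other assays of this panel Not Active means under 50% inhibition at 10 µM.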
For assay [5], the target named is T2, Neutrophil elastase (Homo sapiens, UniProt P08246).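 Further: inhibition of neutrophil elastase enzyme activity, measured with a p-nitroanilide-linked peptide substrate; in other assays of this panel Not Active means under 50% inhibition at 10 µM.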
T2 sequence (P08246 whole entry): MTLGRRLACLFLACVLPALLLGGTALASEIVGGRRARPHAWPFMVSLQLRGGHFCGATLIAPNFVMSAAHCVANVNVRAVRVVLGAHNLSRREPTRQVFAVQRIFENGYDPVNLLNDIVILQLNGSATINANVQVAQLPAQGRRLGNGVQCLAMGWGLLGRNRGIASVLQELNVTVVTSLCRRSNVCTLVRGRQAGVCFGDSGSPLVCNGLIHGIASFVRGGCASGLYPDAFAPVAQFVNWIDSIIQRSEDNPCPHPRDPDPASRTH
It is filed as tissue-based.

Assay [6] addresses 5-hydroxytryptamine receptor 6 (Homo sapiens, UniProt P50406). In kind it is cell membranes, HeLa, Membrane.

As a reminder, the IC50 is the concentration that inhibits the measured activity by half. As a reminder, the Ki is the equilibrium dissociation constant of an inhibitor or competing ligand from its target.

Sequence of 5-hydroxytryptamine receptor 6 (P50406 whole entry): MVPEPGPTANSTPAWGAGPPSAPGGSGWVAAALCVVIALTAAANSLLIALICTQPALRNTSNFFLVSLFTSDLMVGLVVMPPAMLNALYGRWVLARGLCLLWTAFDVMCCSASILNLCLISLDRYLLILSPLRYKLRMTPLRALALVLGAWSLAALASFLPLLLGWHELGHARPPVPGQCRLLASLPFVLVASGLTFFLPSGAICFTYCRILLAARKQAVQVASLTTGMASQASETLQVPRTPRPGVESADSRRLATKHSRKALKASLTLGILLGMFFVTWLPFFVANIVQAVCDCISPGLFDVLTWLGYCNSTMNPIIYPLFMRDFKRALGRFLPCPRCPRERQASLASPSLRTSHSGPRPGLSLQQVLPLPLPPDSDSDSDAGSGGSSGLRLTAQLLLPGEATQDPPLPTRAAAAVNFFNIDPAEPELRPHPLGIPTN
Sequence of Tyrosine-protein kinase Fyn (P06241 whole entry): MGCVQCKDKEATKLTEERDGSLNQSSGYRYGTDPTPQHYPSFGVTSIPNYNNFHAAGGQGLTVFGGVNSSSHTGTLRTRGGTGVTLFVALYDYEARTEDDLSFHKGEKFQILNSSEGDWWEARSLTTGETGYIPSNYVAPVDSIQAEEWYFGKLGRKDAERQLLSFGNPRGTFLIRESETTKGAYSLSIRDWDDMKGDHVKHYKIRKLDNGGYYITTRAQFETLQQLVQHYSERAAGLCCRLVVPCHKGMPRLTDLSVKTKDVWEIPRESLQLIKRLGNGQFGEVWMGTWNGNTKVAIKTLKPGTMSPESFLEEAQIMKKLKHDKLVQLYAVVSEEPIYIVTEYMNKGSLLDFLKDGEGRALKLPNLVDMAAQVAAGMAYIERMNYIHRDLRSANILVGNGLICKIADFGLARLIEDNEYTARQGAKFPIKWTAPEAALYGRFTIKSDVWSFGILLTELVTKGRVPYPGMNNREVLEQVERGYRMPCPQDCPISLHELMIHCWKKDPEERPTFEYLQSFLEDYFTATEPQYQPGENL

Regarding `COc1ccc(C2C(=O)c3ccccc3C2=O)cc1` [ANISINDIONE], the 50% inhibitory concentration (IC50) result in assay [1], in assay [2], in assay [3], in assay [4], in assay [5] and in assay [6] (hela) was “Not Active” throughout. Besides, the Ki entry in assay [2] and in assay [3] was “Not Active” throughout.

`CC[C@H](C)[C@H]1O[C@]2(C=C[C@@H]1C)C[C@@H]1C[C@@H](C/C=C(\C)[C@@H](O[C@H]3C[C@H](OC)[C@@H](O[C@H]4C[C@H](OC)[C@@H](O)[C@H](C)O4)[C@H](C)O3)[C@@H](C)/C=C/C=C3\CO[C@@H]4[C@H](O)C(C)=C[C@@H](C(=O)O1)[C@]34O)O2.CO[C@H]1C[C@H](O[C@H]2[C@H](C)O[C@@H](O[C@@H]3/C(C)=C/C[C@@H]4C[C@@H](C[C@]5(C=C[C@H](C)[C@@H](C(C)C)O5)O4)OC(=O)[C@@H]4C=C(C)[C@@H](O)[C@H]5OC/C(=C\C=C\[C@@H]3C)[C@]54O)C[C@@H]2OC)O[C@@H](C)[C@@H]1O` [ABAMECTIN]: the IC50 result in assay [1], in assay [2], in assay [3], in assay [4], in assay [5] and in assay [6] (hela) was “Not Active” in each case. Besides, the Ki entry in assay [2] and in assay [3] was “Not Active” in each case.

On to `CN/C(=N\CCSCc1nc[nH]c1C)NC#N` [CIMETIDINE], for which the IC50 result in assay [1], in assay [2], in assay [3], in assay [4], in assay [5] and in assay [6] (hela) was “Not Active” throughout. Besides, the Ki entry in assay [2] and in assay [3] was “Not Active” each time.

For the compound NYSTATIN, the IC50 entry in assay [1], in assay [2], in assay [3], in assay [4], in assay [5] and in assay [6] (hela) was “Not Active” throughout. The Ki entry in assay [1], in assay [2], in assay [3], in assay [4], in assay [5] and in assay [6] (hela) was “Not Active” throughout.

As for `CCCNCC(O)COc1ccccc1C(=O)CCc1ccccc1` (stereo not given) [PROPAFENONE], the IC50 result in assay [2] is “Not Active”; in assay [3] it was “Not Active”; in assay [4], “Not Active”; in assay [5] it was “Not Active”; in assay [6] (read-out: IC50), 1860 nM. Besides, the inhibition constant Ki result was “Not Active” in assay [2], “Not Active” in assay [3] and 865 nM in assay [6] (read-out: Ki).

`COC(=O)Nc1nc2ccc([S+]([O-])c3ccccc3)cc2[nH]1` (stereo not given) [OXFENDAZOLE]: the IC50 entry in assay [1], in assay [2], in assay [3], in assay [4], in assay [5] and in assay [6] (hela) was “Not Active” in each case. Also, the Ki result in assay [2] and in assay [3] was “Not Active” in each case.

With `CCC1(C)CC(=O)NC1=O` (stereo not given) [ETHOSUXIMIDE], the IC50 entry in assay [1], in assay [2], in assay [3], in assay [4], in assay [5] and in assay [6] (hela) was “Not Active” each time. Also, the Ki entry in assay [2] and in assay [3] was “Not Active” throughout.

As to `Brc1c(NC2=NCCN2)ccc2nccnc12` [BRIMONIDINE], the IC50 entry in assay [1], in assay [2], in assay [3], in assay [4], in assay [5] and in assay [6] (hela) was “Not Active” in each case. Moreover, the Ki result in assay [2] and in assay [3] was “Not Active” throughout.

As for `CC[C@H]1CN2CCc3cc(OC)c(OC)cc3[C@@H]2C[C@@H]1C[C@H]1NCCc2cc(OC)c(OC)cc21` [EMETINE], the IC50 was 1930 nM in assay [1] (read-out: IC50); “Not Active” in assay [2]; “Not Active” in assay [3]; “Not Active” in assay [4]; “Not Active” in assay [5]; “Not Active” in assay [6] (hela). Moreover, the Ki was 1070 nM in assay [1] (read-out: Ki), “Not Active” in assay [2] and “Not Active” in assay [3].

`COc1cc([C@@H]2c3cc4c(cc3[C@@H](O[C@@H]3O[C@@H]5CO[C@@H](C)O[C@H]5[C@H](O)[C@H]3O)[C@H]3COC(=O)[C@H]23)OCO4)cc(OC)c1O` [ETOPOSIDE]: the IC50 entry in assay [1], in assay [2], in assay [3], in assay [4], in assay [5] and in assay [6] (hela) was “Not Active” each time. Besides, the Ki result in assay [2] and in assay [3] was “Not Active” throughout.

As for `COC(=O)CCc1ccc(OCC(O)CNC(C)C)cc1` (stereo not given) [ESMOLOL], the IC50 result in assay [1], in assay [2], in assay [3], in assay [4], in assay [5] and in assay [6] (hela) was “Not Active” each time. Besides, the Ki result in assay [2] and in assay [3] was “Not Active” in each case.

On to `COc1ccc(C(=O)N2CCCC2=O)cc1`, for which the IC50 result in assay [1], in assay [2], in assay [3], in assay [4], in assay [5] and in assay [6] (hela) was “Not Active” in each case. The Ki entry in assay [2] and in assay [3] was “Not Active” each time.

For `O=C(O)CCNC(=O)c1ccccc1` [BETAMIPRON], the IC50 result in assay [1], in assay [2], in assay [3], in assay [4], in assay [5] and in assay [6] (hela) was “Not Active” each time. Moreover, the Ki result in assay [2] and in assay [3] was “Not Active” each time.

As to `O=c1cnn([C@@H]2O[C@H](CO)[C@@H](O)[C@H]2O)c(=O)[nH]1` [6-AZAURIDINE], the IC50 result in assay [1], in assay [2], in assay [3], in assay [4], in assay [5] and in assay [6] (hela) was “Not Active” in each case. The Ki result in assay [2] and in assay [3] was “Not Active” throughout.

With `Cc1c(OCC(F)(F)F)ccnc1C[S+]([O-])c1nc2ccccc2[nH]1` (stereo not given) [LANSOPRAZOLE], the IC50 result in assay [1], in assay [2], in assay [3], in assay [4], in assay [5] and in assay [6] (hela) was “Not Active” throughout. For the same compound, the Ki result in assay [2] and in assay [3] was “Not Active” each time.

Take `C[C@@H]1C[C@H]2[C@@H]3CCC4=CC(=O)C=C[C@]4(C)[C@@]3(F)[C@@H](O)C[C@]2(C)[C@H]1C(=O)CO` [DESOXIMETASONE]: the IC50 result in assay [1], in assay [2], in assay [3], in assay [4], in assay [5] and in assay [6] (hela) was “Not Active” each time. In addition, the Ki result in assay [2] and in assay [3] was “Not Active” in each case.

`O=C(c1ccccc1C(F)(F)F)N1CCC(Cc2ccccc2)CC1`: the IC50 entry in assay [1], in assay [2], in assay [3], in assay [4], in assay [5] and in assay [6] (hela) was “Not Active” throughout. Also, the Ki result in assay [2] and in assay [3] was “Not Active” each time.

On to `O=c1cc(N2CCOCC2)oc2c(-c3ccccc3)cccc12` [LY-294002], for which the IC50 result in assay [1], in assay [2], in assay [3], in assay [4], in assay [5] and in assay [6] (hela) was “Not Active” throughout. Besides, the Ki result in assay [2] and in assay [3] was “Not Active” each time.

In the case of `COc1cc(N)c(Cl)cc1C(=O)NC1CCN(CCCOc2ccc(F)cc2)CC1OC` (stereo not given) [CISAPRIDE], the IC50 in assay [1] (read-out: IC50) was 16 nM; in assay [2], “Not Active”; in assay [3] it was “Not Active”; in assay [4], “Not Active”; in assay [5], “Not Active”; in assay [6] (hela), “Not Active”. Also, the figures for the Ki in assay [1] (read-out: Ki), in assay [2] and in assay [3] were 8.65 nM, “Not Active” and “Not Active”, respectively.

On to `COc1cc2nc(N3CCN(C(=O)c4ccco4)CC3)nc(N)c2cc1OC` [PRAZOSIN], for which the IC50 result in assay [2], in assay [3], in assay [4], in assay [5] and in assay [6] (hela) was “Not Active” throughout. For the same compound, the Ki entry in assay [2] and in assay [3] was “Not Active” in each case.
